Test results taken from patent US20160376659A1, “Breast Cancer Biomarker” (The University of Manchester, priority 2015, published 2016).
Entries after “also recorded” stand apart in the source; their conditions may differ.

What was measured:
[1] = system: Notch target genes HEY1 and HES1; test: HEY1 and HES1 expression in ER+ cell lines (real-time PCR, Western Blot); assay type: cell-based, human; conditions: for expression of HEY1 and HES1: MCF-7, T47D, ZR-75-1, 6 days, in the ALDH+ subpopulation
Procedure: MCF7, T47D and ZR-75-1 cell lines were purchased from American Tissue Culture Collection (ATCC) and cultured in DMEM/F-12, GlutaMAX (Gibco) with 10% FBS (Gibco). Cells were treated for 3 days or 6 days with ethanol (control), 10^-6M 4-OH-tamoxifen or 10^−7M fulvestrant and/or with 10 μM of gamma-secretase inhibitor RO4929097 (Cellagen Technology) or DMSO (control).
Total RNA was extracted using the RNeasy Plus Mini Kit (QIAGEN, 74104) and the concentration and purity determined using an ND-1000 spectrophotometer (NanoDrop Technologies). Reverse transcription of 1 μg of RNA was performed with Oligo(dT) using the TaqMan Reverse Transcription Reagents from Applied Biosystems (N8080234). Samples were incubated on a thermal cycler (MJ Research) for 10 minutes at 25° C., 30 minutes at 48° C. and 5 minutes at 95° C. Quantitative real-time PCR reactions were set up in triplicate in 384-well plates and performed on the 7900 PCR machine (Applied Biosystems) using TaqMan® Universal PCR Master Mix (Applied Biosystems) and probes from Universal Probe Library (Roche). Conditions used for amplification of cDNA fragments were as follows: 95° C. for 5 min, 40 cycles of amplification-95 C for 15 sec, 60 C for 1 min. The expression levels were calculated using the ΔΔCt method and normalised to the housekeeping genes 36B4 and GAPDH. The sequences of the primers and probes used can be found in the table below.
Proteins were extracted with Protein Lysis Buffer (25 mM HEPES, 50 mM NaCl, 30 mM NaPP, 50 mM NaF, 1% Triton-X-100, 10% Glycerol, 5 mM EDTA, Protease Inhibitor cocktail, 1 μM PMSF). Lysates were placed on a rotator for 1 hour at 4° C., then were centrifuged at 10000 g at 4° C. for 10 min, and supernatants were collected. Protein concentrations were assessed using the BCA Protein Assay Kit (Thermo Scientific, 23225). Proteins were separated on a 10% gel (Biorad, 456-1033) by SDS-PAGE at 200V for 1 hour, and then were transferred on polyvinylidene difluoride (PVDF) membranes (BioRad, 170-4157) at 25 V/1,300 mA for 15 min using a Trans Blot Turbo (BioRad, 170-4155). […]

[2] = system: Early (HBC×34) and metastatic (BB3RC31) PDX tumors; test: BCSC activity (MFE, ALDEFLUOR) of ER+ PDX tumors treated in vivo; parameters: species or system mice; conditions: 14 days; for BCSC activity measured by MFE and ALDH enzymatic activity: tamoxifen 10 mg/kg/day oral, fulvestrant 200 mg/kg/week s.c.
Procedure: Early (HBC×34) and metastatic (BB3RC31) BC estrogen-dependent PDXs were administered with 8 ug/ml of 17-beta estradiol in drinking water at all times and were treated with drugs when tumors reached 200-300 mm^3. Experiments were performed using PDX tumors between passages 5 and 8. Animal weight and tumor size was measured bi-dimensionally using callipers twice a week. The HBC×34 model was kindly provided by Dr Elisabetta Marangoni from Institute Curie, Paris (Cottu et al., 2012).
Tamoxifen citrate (Sigma, T9262, 10 mg/kg/day) and RO4929097 (Cellagen Technology, 3 mg/kg/day) were administered by oral gavage (0.1 ml/dose) on a five day from seven basis (weekends excluded) for fourteen days. Tamoxifen citrate and RO4929097 were prepared in 1% carboxymethylcellulose (Sigma, C9481) dissolved in distilled water. Fulvestrant (kindly provided by Astrazeneca, 200 mg/kg/week) was administered by subcutaneous injection (0.1 ml/dose) on a weekly basis for fourteen days. The HBC×22 and HBC×34 tamoxifen-resistant PDXs have been established by our collaborators in the Curie Institute (Cottu el al, 2014) and were treated for fourteen days in the presence or absence of the gamma-secretase inhibitor RO4929097 (10 mg/kg/day, oral gavage). […]
Single cell suspensions of freshly isolated ER+ primary and metastatic patient-derived samples were cultured for 7-9 days (primary cells) in mammosphere colony assays in the presence of ethanol, 10^−6 M 4-hydroxy-tamoxifen or 10^−7 M fulvestrant. […] Mammosphere formation efficiency (MFE) was calculated by dividing the number of mammospheres formed (≧50 μm) by the original number of single cells seeded (500 cells/cm^2 for primary cells and 200 cells/cm^2 for cell lines) and is expressed as fold change normalised to control or as the mean percentage of MFE (Shaw et al., 2012).
Dissociated single cells were suspended in Aldefluor assay buffer containing an ALDH substrate, bodipyaminoacetaldehyde (BAAA) at […], and incubated for 45 min at 37° C. […] Data were acquired on a LSR II (BD) flow cytometer and analysed using the BD FACSDiva™ software.

SMILES	expression of HEY1 and HES1 [1]	BCSC activity measured by MFE and ALDH enzymatic activity [2]	HEY1 and HES1 mRNA and protein levels ([1]; MCF-7 cells pre-treated six days with RO4929097 10 μM)	endocrine stimulated BCSC activity (MFE and Aldefluor activity) ([2]; RO4929097 3 mg/kg/day oral with tamoxifen or fulvestrant)
C[C@]12CC[C@@H]3c4ccc(O)cc4C[C@@H](CCCCCCCCC[S+]([O-])CCCC(F)(F)C(F)(F)F)[C@H]3[C@@H]1CC[C@@H]2O (stereo partly drawn) [fulvestrant]	preferentially increased	paradoxical increase; also recorded: increasing		
CC/C(=C(\c1ccccc1)c1ccc(OCCN(C)C)cc1)c1ccccc1 [tamoxifen, (Z)-2-[4-(1,2-diphenylbut-1-enyl)phenoxy]-N,N-dimethylethanamine]	preferentially increased	paradoxical increase; also recorded: increasing		
CC(C)(C(=O)NCC(F)(F)C(F)(F)F)C(=O)N[C@@H]1C(=O)Nc2ccccc2-c2ccccc21 [RO4929097]			decreased	significantly inhibited
